Our source for the IC50 and Ki values is BindingDB's records for doi:10.1016/s0960-894x(99)00237-1 (Warner-Lambert, 1999).

Test [1] deals with T1, Human immunodeficiency virus type 1 protease (Human immunodeficiency virus 1, UniProt Q72874). Nature of the test: In vitro binding affinity against HIV protease at pH 6.2.
The target of test [2] is T1, Human immunodeficiency virus type 1 protease. Nature of the test: Binding affinity towards HIV protease was determined.
Test [3] shares this target. Nature of the test: ChEBML_157707. The note with it: pH 6.2. The method, then: In vitro binding affinity against HIV protease at pH 6.2 was determined

pIC50, pKi: −log10 of the molar value.

As a reminder, the pIC50 is −log10 of the IC50, conventionally taken in molar units. Low values mean a large IC50, high ones a small IC50. In turn, `Cc1cc(SC2C(=O)CC(CCc3ccc(O)cc3)(C(C)C)OC2=O)c(C(C)(C)C)cc1N(C)C` (configuration not stated) [3-(2-tert-Butyl-4-dimethylamino-5-methyl-phenylsulfanyl)-4-hydroxy-6-[2-(4-hydroxy-phenyl)-ethyl]-6-isopropyl-5,6-dihydro-pyran-2-one] gave a pIC50 in test [1] of 7.96.
On the same count and under the same terms, to `Cc1cc(SC2C(=O)CC(CCc3ccccc3)(c3ccccc3)OC2=O)c(C(C)(C)C)cc1N` (configuration not stated) [3-(4-Amino-2-tert-butyl-5-methyl-phenylsulfanyl)-4-hydroxy-6-phenethyl-6-phenyl-5,6-dihydro-pyran-2-one] belongs 7.96.
The pKi is the negative decadic logarithm of the Ki, by convention in mol/L. In the case of `Cc1cc(SC2C(=O)C[C@@](CCc3ccc(O)cc3)(C(C)C)OC2=O)c(C(C)(C)C)cc1N` (stereo partly drawn) [(6S)-3-[(4-amino-2-tert-butyl-5-methylphenyl)sulfanyl]-4-hydroxy-6-[2-(4-hydroxyphenyl)ethyl]-6-(propan-2-yl)-5,6-dihydro-2H-pyran-2-one], the pKi in test [2] and in test [3] was 10.15 in each case.
Turning to `Cc1cc(SC2C(=O)CC(CCc3ccc(O)cc3)(C(C)C)OC2=O)c(C(C)(C)C)cc1NC(=O)c1ccccc1` (configuration not stated) [N-(5-tert-Butyl-4-{4-hydroxy-6-[2-(4-hydroxy-phenyl)-ethyl]-6-isopropyl-2-oxo-5,6-dihydro-2H-pyran-3-ylsulfanyl}-2-methyl-phenyl)-benzamide], the pIC50 in test [1] was 7.89.
Still for that read-out and setting: to `Cc1cc(SC2C(=O)CC(CCc3ccc(O)cc3)(C(C)C)OC2=O)c(C(C)(C)C)cc1NC(=O)c1ccncc1` (configuration not stated) [N-(5-tert-Butyl-4-{4-hydroxy-6-[2-(4-hydroxy-phenyl)-ethyl]-6-isopropyl-2-oxo-5,6-dihydro-2H-pyran-3-ylsulfanyl}-2-methyl-phenyl)-isonicotinamide] belongs 8.29; to `Cc1cc(SC2C(=O)CC(CCc3ccc(O)cc3)(C(C)C)OC2=O)c(C(C)(C)C)cc1NC(=O)c1cccnc1` (configuration not stated) [N-(5-tert-Butyl-4-{4-hydroxy-6-[2-(4-hydroxy-phenyl)-ethyl]-6-isopropyl-2-oxo-5,6-dihydro-2H-pyran-3-ylsulfanyl}-2-methyl-phenyl)-nicotinamide], 8.29.
